Assay results reported in patent publication US10221163B2 (priority 2015, dated 2019).
Like-named read-outs stand apart in the source and are kept apart here.

Experiments:
IMP-1 = IMP-1 (Serratia marcescens, UniProt P52699); assay: biochemical; format: biochemical; settings: fluorescence assay, CCF2-FA substrate, 2 pM enzyme, 2 hours at 25° C.; read-out: IMP-1 IC50
Procedure, shortened: (§1)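 IC50 values derive from 4-parameter fits of percent inhibition against inhibitor concentration on semi-log axes. Activity was monitored by fluorescence with the CCF2-FA substrate after a 2-hour, 25° C incubation of compound, enzyme and substrate.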

NDM-1 = NDM-1 (Klebsiella pneumoniae, UniProt C7C422); assay: biochemical; format: biochemical; settings: fluorescence assay, CCF2-FA substrate, 1 pM enzyme, 2 hours at 25° C.; read-out: NDM-1 IC50
Sequence of NDM-1 (C7C422 whole entry, looked up, species assumed): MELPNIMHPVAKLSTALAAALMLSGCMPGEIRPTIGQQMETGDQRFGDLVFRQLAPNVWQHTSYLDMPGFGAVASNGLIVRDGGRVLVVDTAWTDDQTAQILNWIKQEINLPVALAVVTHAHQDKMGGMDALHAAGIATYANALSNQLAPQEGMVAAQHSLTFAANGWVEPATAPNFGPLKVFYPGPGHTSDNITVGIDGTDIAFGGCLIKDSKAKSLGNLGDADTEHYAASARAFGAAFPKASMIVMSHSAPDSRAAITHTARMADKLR
Procedure, shortened: as §1

VIM-1 = VIM-1 (Pseudomonas aeruginosa (strain ATCC 15692 / DSM 22644 / CIP 104116 / JCM 14847 / LMG 12228 / 1C / PRS 101 / PAO1), UniProt A0A0F7KYQ8); assay: biochemical; settings: CCF2-FA substrate, 30 pM enzyme, 2 hours at 25° C.
Procedure, shortened: as §1

[1] = tested on: Escherichia coli expressing NDM-1 (CLB30005, CLB30016); format: cell-based; settings: with imipenem 1 μg/ml; 95% inhibition of bacterial growth
Procedure, shortened: (§2)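 Growth by absorbance after 22–24 h at 35°C defined the read-out, with imipenem fixed at 1 μg/ml alongside compound. Inocula came from overnight blood-agar colonies at 35°C, resuspended in saline and diluted 1:100 in 1.1×CAMHB.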

[2] = tested on: Klebsiella pneumoniae expressing VIM-1 (IHMA599644); format: cell-based; settings: with imipenem 1 μg/ml; 95% inhibition of bacterial growth
Procedure, shortened: as §2

[3] = tested on: Serratia marcescens expressing IMP-1 (CL5741); format: cell-based; settings: with imipenem 1 μg/ml; 95% inhibition of bacterial growth
Procedure, shortened: as §2

[4] = tested on: Pseudomonas aeruginosa efflux+ (MB9798), IMP-1; format: cell-based; settings: concentration restoring susceptibility to imipenem at 2 μg/mL in the presence of a class A, C, D serine β-lactamase inhibitor closely related to relebactam
Procedure, shortened: (§3)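 Steps: add fixed imipenem and/or ceftazidime (usually CLSI breakpoint) and fixed AmpC-directed class A/C inhibitor to microbroth MIC wells; titrate MBL inhibitor; record concentration regaining susceptibility for each PAO1-derived strain; divide efflux+ by efflux− value.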

[5] = tested on: Pseudomonas aeruginosa efflux− (MB9799), IMP-1; format: cell-based; settings: concentration restoring susceptibility to imipenem at 2 μg/mL in the presence of a class A, C, D serine β-lactamase inhibitor closely related to relebactam
Procedure, shortened: as §3

[6] = tested on: Pseudomonas aeruginosa MB9798 vs MB9799; settings: ratio MITC95 PA_9798/MITC95 PA_9799
Procedure, shortened: as §3

[7] = fluorescence assay, read-out: VIM-1 IC50

Sequence of IMP-1 (P52699 whole entry, looked up, species assumed): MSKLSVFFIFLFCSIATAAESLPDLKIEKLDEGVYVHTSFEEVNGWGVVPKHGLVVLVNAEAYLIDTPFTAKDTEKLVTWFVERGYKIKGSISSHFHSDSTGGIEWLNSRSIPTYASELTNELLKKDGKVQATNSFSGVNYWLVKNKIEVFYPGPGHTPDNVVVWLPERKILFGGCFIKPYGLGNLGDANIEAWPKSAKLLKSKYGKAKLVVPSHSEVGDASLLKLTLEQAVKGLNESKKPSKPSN

Structure (SMILES) | IC50 (IMP-1) | IC50 (NDM-1) | IC50 (VIM-1; [7]) | Escherichia coli expressing NDM-1 (CLB30016) MITC95 [1] | Klebsiella pneumoniae expressing VIM-1 (IHMA599644) MITC95 [2] | Serratia marcescens expressing IMP-1 (CL5741) MITC95 [3] | P. aeruginosa expressing IMP-1, efflux + (MB9798) MITC95 [4] | P. aeruginosa expressing IMP-1, efflux − (MB9799) MITC95 [5] | Efflux ratio [6] | IC50 (VIM-1; VIM-1 IC50, fluorescence assay)
CN1CCC(N(C)S(=O)(=O)c2ccc(-c3cccc4sc(N)nc34)c(-c3nnn[nH]3)c2S(N)(=O)=O)C1 (stereo not drawn) [Example 54, 4-(2-amino-1,3-benzothiazol-4-yl)-N1-methyl-N1-(1-methylpyrrolidin-3-yl)-3-(1H-tetrazol-5-yl)benzene-1,2-disulfonamide] | 1.93 nM | 0.19 nM | 3.64 nM | 6.25 µM | 6.25 µM | 3.125 µM | 6.25 µM | 3.125 µM | 2.00 | 
Nc1nc2c(-c3ccc(S(=O)(=O)N4CCC(N)(CO)C4)c(S(N)(=O)=O)c3-c3nnn[nH]3)cccc2s1 (stereo not drawn) [Example 55, 3-(2-amino-1,3-benzothiazol-4-yl)-6-{[3-amino-3-(hydroxymethyl)pyrrolidin-1-yl]sulfonyl}-2-(1H-tetrazol-5-yl)benzenesulfonamide] | 0.86 nM | 0.51 nM | 1.46 nM | 3.125 µM | 6.25 µM | 3.125 µM | 3.125 µM | 3.125 µM | 1.00 | 
CCC1(NS(=O)(=O)c2ccc(-c3cccc4sc(N)nc34)c(-c3nnn[nH]3)c2S(N)(=O)=O)CCNC1 (stereo not drawn) [Example 56, 4-(2-amino-1,3-benzothiazol-4-yl)-N1-(3-ethylpyrrolidin-3-yl)-3-(1H-tetrazol-5-yl)benzene-1,2-disulfonamide] | 0.342 nM | 0.0519 nM | 0.245 nM | 1.563 µM | 3.125 µM | 3.125 µM | 1.563 µM | 1.563 µM | 1.00 | 
CC1(NS(=O)(=O)c2ccc(-c3cccc4sc(N)nc34)c(-c3nnn[nH]3)c2S(N)(=O)=O)CCCNC1 (stereo not drawn) [Example 57, 4-(2-amino-1,3-benzothiazol-4-yl)-N1-(3-methylpiperidin-3-yl)-3-(1H-tetrazol-5-yl)benzene-1,2-disulfonamide] | 0.554 nM | 0.0853 nM | 0.355 nM | 3.125 µM | 3.125 µM | 6.25 µM | 3.125 µM | 3.125 µM | 1.00 | 
Nc1nc2c(-c3ccc(S(=O)(=O)N[C@@H]4CNC[C@@H]4F)c(S(N)(=O)=O)c3-c3nnn[nH]3)cccc2s1 [Example 58, 4-(2-amino-1,3-benzothiazol-4-yl)-N1-[(3R,4S)-4-fluoropyrrolidin-3-yl]-3-(1H-tetrazol-5-yl)benzene-1,2-disulfonamide] | 0.759 nM | 0.0686 nM | 0.404 nM | 1.563 µM | 3.125 µM | 1.563 µM | 1.563 µM | 1.563 µM | 1.00 | 
Nc1nc2c(-c3ccc(S(=O)(=O)N[C@H]4CNC[C@@H]4F)c(S(N)(=O)=O)c3-c3nnn[nH]3)cccc2s1 [Example 59, 4-(2-amino-1,3-benzothiazol-4-yl)-N1-[(3S,4S)-4-fluoropyrrolidin-3-yl]-3-(1H-tetrazol-5-yl)benzene-1,2-disulfonamide] | 0.558 nM | 0.0357 nM | 0.309 nM | 1.563 µM | 3.125 µM | 1.563 µM | 1.563 µM | 1.563 µM | 1.00 | 
Nc1nc2c(-c3ccc(S(=O)(=O)N[C@H]4CCNC4)c(S(N)(=O)=O)c3-c3nnn[nH]3)cccc2s1 [Example 60, 4-(2-amino-1,3-benzothiazol-4-yl)-N1-[(3S)-pyrrolidin-3-yl]-3-(1H-tetrazol-5-yl)benzene-1,2-disulfonamide] | 0.679 nM | 0.0765 nM | 0.236 nM | 3.125 µM | 3.125 µM | 1.563 µM | 0.7813 µM | 1.563 µM | 0.50 | 
Nc1nc2c(-c3ccc(S(=O)(=O)N4CC[C@H](N)C4)c(S(N)(=O)=O)c3-c3nnn[nH]3)cccc2s1 [Example 61, 3-(2-amino-1,3-benzothiazol-4-yl)-6-{[(3S)-3-aminopyrrolidin-1-yl]sulfonyl}-2-(1H-tetrazol-5-yl)benzenesulfonamide] | 1.47 nM | 0.976 nM |  | 3.125 µM | 3.125 µM | 3.125 µM | 1.563 µM | 1.563 µM | 1.00 | 1.44 nM
Nc1nc2c(-c3ccc(S(=O)(=O)N4CC[C@@H](N)C4)c(S(N)(=O)=O)c3-c3nnn[nH]3)cccc2s1 [Example 62, 3-(2-amino-1,3-benzothiazol-4-yl)-6-{[(3R)-3-aminopyrrolidin-1-yl]sulfonyl}-2-(1H-tetrazol-5-yl)benzenesulfonamide] | 1.28 nM | 0.843 nM |  | 3.125 µM | 3.125 µM | 1.563 µM | 1.563 µM | 1.563 µM | 1.00 | 1.63 nM
Nc1nc2c(-c3ccc(S(=O)(=O)N[C@@H]4CCNC4)c(S(N)(=O)=O)c3-c3nnn[nH]3)cccc2s1 [Example 63, 4-(2-amino-1,3-benzothiazol-4-yl)-N1-[(3R)-pyrrolidin-3-yl]-3-(1H-tetrazol-5-yl)benzene-1,2-disulfonamide] | 0.307 nM | 0.0445 nM | 0.257 nM | 1.563 µM | 1.563 µM | 1.563 µM | 0.7813 µM | 1.563 µM | 0.50 | 
CN(C1CCCNC1)S(=O)(=O)c1ccc(-c2cccc3sc(N)nc23)c(-c2nnn[nH]2)c1S(N)(=O)=O (stereo not drawn) [Example 64, 4-(2-amino-1,3-benzothiazol-4-yl)-N1-methyl-N1-piperidin-3-yl-3-(1H-tetrazol-5-yl)benzene-1,2-disulfonamide] | 2.16 nM | 1.49 nM |  | 12.5 µM | 12.5 µM | 1.563 µM | 3.125 µM | 1.563 µM | 2.00 | 5.69 nM
CN([C@H]1CCNC1)S(=O)(=O)c1ccc(-c2cccc3sc(N)nc23)c(-c2nnn[nH]2)c1S(N)(=O)=O [Example 65, 4-(2-amino-1,3-benzothiazol-4-yl)-N1-methyl-N1-[(3S)-pyrrolidin-3-yl]-3-(1H-tetrazol-5-yl)benzene-1,2-disulfonamide] | 0.703 nM | 0.464 nM | 1.43 nM | 6.25 µM | 3.125 µM | 3.125 µM | 3.125 µM | 1.563 µM | 2.00 | 
